Data reported in US6562627B1, “High throughput method for measurement of physicochemical values” (BDC Pharma LLC, priority 1998, dated 2003).
Where a name gives a salt, the structure may show the parent alone. Read-outs that look alike come from different tables or passages of the source.

Legend:
[1] = From the text: (§1) k′app=k′HA([H^+]+^surfaceKa)/([H^+]+^bulkKa) Eq. 7
(§2) where k′app is the capacity factor of the test compound measured at different mobile phase pH conditions, and k′HA is the capacity factor of the non-ionized species. Nonlinear fitting of the three experimentally measured parameters [H+], k′app, and k′HA to eq. 7 can be used to obtain numerical estimates for both ^surface Ka and ^bulkKa of the compound.
(§3) k′app=k′A^−([H^+]/^surfaceKa+1)/([H^+]/^bulkKa+1) Eq. 8
(§4) The reason for developing eq. 7 is that eq. […] Both parameters (k′HA and k′A^−) can be treated as unknowns in the equations (like ^bulkKa and ^surfaceKa), and the experimental data can be used to calculate (by non-linear curve fitting) three parameters (k′HA (or k′A^−) and ^bulkKa and ^surfaceKa) instead of two (^bulkKa and ^surfaceKa). This reduces the number of experimental data to be collected, and still allows the determination of the desired parameters (^bulkKa and ^surfaceKa).
(§5) The conventional thinking regarding equations 7 and 8 is that k′HA and k′A^− (the capacity factors of the […] species) are constants that have to be determined experimentally in order to calculate ^bulkpKa and ^surfacepKa. […] This is problematic because it may require use of pH's greater than 8-9, which in the case of some test surfaces causes deterioration. […] If sufficient data are collected (no matter what the pH range is), non-linear curve fitting techniques can be used to fit three parameters (^bulkpKa, ^surfacepKa and k′HA (or k′A^−, depending on whether you use Eq. 7 or Eq. 8)) instead of two (^bulkpKa and ^surfacepKa).
The data was collected on 4.6×30 mm^esterIAM.PC^C10/C3 columns. Four ^esterIAM.PC^C10/C3 columns were used to collect all the experimental data.
(§6) The test compounds were injected as two distinct mixtures (acidic and basic compounds) to avoid acid/base interactions during the chromatographic runs. […] The retention time (tr) was determined for each compound and the corresponding capacity factor k′app was calculated. Between each run, column degradation was evaluated by running the standard compounds at pH=7.4.
(§7) The retention time of each compound was determined using the Esquire Data Analysis software. The capacity factors k′app were calculated using the equation: k′app=(tr−t0)/t0 where the tr is the retention time, and t0 is the dead time. The final ^surfaceKa and ^bulkKa were calculated by nonlinear least square curve fitting of the following equations:
(§8) k′app=k′HA([H^+]+^surfaceKa)/([H^+]+^bulkKa) (Eq. 7 as shown above).
(§9) k′app=k′A^−([H^+]/^surfaceKa+1)/([H^+]/+^bulkKa+1) (Eq. 8 as shown above).
(§10) [H^+] was calculated from the mobile phase pH values used for the experiment. The fitting parameters were k′A^−, ^surfaceKa, and ^bulkKa for the acidic compounds and kHA, ^surfaceKa, and ^bulkKa for the basic compounds.
(§11) The nonlinear fitting function is from the commercial software S-PLUS (MathSoft). Briefly, the function tries to estimate the parameters to minimize the sum of the squared differences between the response and the prediction. We collected data at 15 different pH values. […] Like all silica based chromatography material, Immobilized Artificial Membranes (IAM's) are unstable in the presence of chemically basic mobile phase, and column lifetimes decrease under these conditions. Thus it is not possible to continuously perfuse IAM columns with basic mobile phases for extended periods of time. […] In summary, 12 points were used to curve fit the data.
(§12) For each compound, the retention time (tr) was determined and the corresponding capacity factor (k′app) was calculated under various mobile phase pH conditions.

[2] = remark: listed apart in the source
From the text: as §1, §2, §3, §4, §5, §6, §7, §8, §9, §10, §11, §12

[3] = literature, cited from earlier work; for bulkpka2 (Ref.): second ionizable group
[4] = cited from earlier work
[5] = cited from earlier work; remark: listed apart in the source
[6] = Capacity factor (k′app) by LC/MS on an immobilized artificial membrane column at varied mobile phase pH; format: physicochemical
[7] = esterIAM.PC C10/C3 column, 0.01 M PBS mobile phase, 12 pH points 4.05 to 8.06, monovalent equations
[8] = 0.01 M PBS mobile phase, 12 pH points 4.05 to 8.06, monovalent equations

## CC[C@H]1[C@@H]2C[C@H]3[C@@H]4N(C)c5ccccc5[C@]45C[C@@H]([C@H]2[C@H]5O)N3[C@@H]1O [ajmaline]
[1]; [7]
  surfacepKa (Exp.): 6.75
[2]; [8]
  bulkpKa (Exp.): 7.43
[3]; 20° C., DMFA/H2O-80%
  bulkpKa1 (Ref.): 8.1

## CCCCNc1ccc(C(=O)OCCN(C)C)cc1 [TTC, tetracaine hydrochloride]
[4]; pH 5.5, positively charged form
  location in the membrane: resides near the phospholipid head group region
[4]; pH 9.0, uncharged form
  location in the membrane: penetrates more deeply into the hydrocarbon region of the membrane

## CCCCCCCCCCCCC/C=C/[C@@H](O)[C@H](CO)N(C)C [DMS, N,N-Dimethyl-D-sphingosine]
[5]; at physiological pH
  fraction protonated: 90%
[5]
  membrane bound pKa value: 8.8

## C=CCN1CC[C@]23c4c5ccc(O)c4O[C@H]2[C@@H](O)C=C[C@H]3[C@H]1C5 [nalorphine]
[1]; [7]
  surfacepKa (Exp.): 6.04
[2]; [8]
  bulkpKa (Exp.): 7.63
[3]; conditions not given
  bulkpKa1 (Ref.): 7.8

## COc1cc2c(cc1OC)[C@@]13CCN4CC5=CCO[C@H]6CC(=O)N2[C@H]1[C@H]6[C@H]5C[C@H]43 [brucine]
[1]; [7]
  surfacepKa (Exp.): 6.55
[2]; [8]
  bulkpKa (Exp.): 7.9
[3]; conditions not given
  bulkpKa1 (Ref.): 6.04
[3]
  bulkpka2 (Ref.): 11.70

## CC1COc2c(N3CCN(C)CC3)c(F)cc3c(=O)c(C(=O)O)cn1c23 (centres unmarked) [ofloxacin]
[1]; [7]
  surfacepKa (Exp.): 7.32
[2]; [8]
  bulkpKa (Exp.): 6.84
[3]; conditions not given
  bulkpKa1 (Ref.): 5.74
[3]
  bulkpka2 (Ref.): 7.9

## COc1ccc(OC)c(C(O)CNC(=O)CN)c1 (centres unmarked) [midodrine]
[1]
  surfacepKa (Exp.): 6.18
[2]
  bulkpKa (Exp.): 6.65
[3]; 0.3% aq. soln
  bulkpKa1 (Ref.): 7.80

## C=C1CC[C@@]2(O)[C@H]3Cc4ccc(O)c5c4[C@@]2(CCN3CC2CC2)[C@H]1O5 [nalmefene]
[1]; [7]
  surfacepKa (Exp.): 6.88
[2]; [8]
  bulkpKa (Exp.): 7.81
[3]; conditions not given
  bulkpKa1 (Ref.): 7.63

## CN(C)CCOC(C)(c1ccccc1)c1ccccn1 (centres unmarked) [doxylamine]
[1]; [7]
  surfacepKa (Exp.): 6.72
[2]; [8]
  bulkpKa (Exp.): 7.93
[3]; conditions not given
  bulkpKa1 (Ref.): 7.64
[3]
  bulkpka2 (Ref.): 9.20

## CC(=O)CC(c1ccccc1)c1c(O)c2ccccc2oc1=O (centres unmarked) [warfarin]
[1]; [7]
  surfacepKa (Exp.): 7
[2]; [8]
  bulkpKa (Exp.): 5.43

## Cc1cc(-c2ccccc2)nnc1NCCN1CCOCC1 [minaprine]
[1]
  surfacepKa (Exp.): 5.75
[2]
  bulkpKa (Exp.): 6.75
[3]; conditions not given
  bulkpKa1 (Ref.): 7.05
[3]
  bulkpka2 (Ref.): 4

## CCn1cc(C(=O)O)c(=O)c2ccc(C)nc21 [nalldixic acid]
[1]; [7]
  surfacepKa (Exp.): 7.54
[2]; [8]
  bulkpKa (Exp.): 6.03
[3]; conditions not given
  bulkpKa1 (Ref.): 6.02

## COc1cc2nc(N3CCN(C(=O)C4CCCO4)CC3)nc(N)c2cc1OC (centres unmarked) [terazosin]
[1]
  surfacepKa (Exp.): 6.17
[2]
  bulkpKa (Exp.): 6.65
[3]; 0.1 N NaOH
  bulkpKa1 (Ref.): 7.1

## COc1cc(NS(=O)(=O)c2ccc(N)cc2)nc(OC)n1 [sulfadimethoxine]
[6]; mobile phase pH 4.05
  Capacity Factor (k′app) on IAM.PC Surface: 152.07
[6]; mobile phase pH 4.53 (not used for curve fit)
  Capacity Factor (k′app) on IAM.PC Surface: 131.83
[6]; mobile phase pH 5.01
  Capacity Factor (k′app) on IAM.PC Surface: 131.23
[6]; mobile phase pH 5.51
  Capacity Factor (k′app) on IAM.PC Surface: 116.77
[6]; mobile phase pH 6.10
  Capacity Factor (k′app) on IAM.PC Surface: 67.79
[6]; mobile phase pH 6.38
  Capacity Factor (k′app) on IAM.PC Surface: 46.54
[6]; mobile phase pH 6.71
  Capacity Factor (k′app) on IAM.PC Surface: 28.10
[6]; mobile phase pH 7.00
  Capacity Factor (k′app) on IAM.PC Surface: 19.48
[6]; mobile phase pH 7.17
  Capacity Factor (k′app) on IAM.PC Surface: 13.49
[6]; mobile phase pH 7.45
  Capacity Factor (k′app) on IAM.PC Surface: 8.24
[6]; mobile phase pH 7.69
  Capacity Factor (k′app) on IAM.PC Surface: 6.40
[6]; mobile phase pH 7.91
  Capacity Factor (k′app) on IAM.PC Surface: 4.85
[6]; mobile phase pH 8.06
  Capacity Factor (k′app) on IAM.PC Surface: 3.52
[6]; mobile phase pH 8.81 (column degradation, not used for curve fit)
  Capacity Factor (k′app) on IAM.PC Surface: 2.84
[6]; mobile phase pH 10.42 (column degradation, not used for curve fit)
  Capacity Factor (k′app) on IAM.PC Surface: 0.71
[1]; [7]
  surfacepKa (Exp.): 7.64
[2]; [8]
  bulkpKa (Exp.): 6.02

## CCC[C@@H]1C[C@@H](C(=O)N[C@@H]([C@H]2O[C@H](SC)[C@H](O)[C@@H](O)[C@H]2O)[C@@H](C)O)N(C)C1 [lincomycin]
[1]
  surfacepKa (Exp.): 6.28
[2]
  bulkpKa (Exp.): 7.54
[3]; conditions not given
  bulkpKa1 (Ref.): 7.5

## C=CCN1CC[C@]23c4c5ccc(O)c4O[C@H]2C(=O)CC[C@@]3(O)[C@H]1C5 [naloxone]
[1]; [7]
  surfacepKa (Exp.): 6.24
[2]; [8]
  bulkpKa (Exp.): 7.84
